Assay: CO concentration of the CO-containing compositions analyzed by gas chromatography
Type: physicochemical
Conditions: about 2 atm; for CO concentration of liquid phase obtained by actual measurement: solvent H2O; for CO concentration in liquid phase obtained by actual measurement: solvent carbomer aqueous solution; for CO concentration of IPM: solvent isopropyl myristate
Experimental: (§1) Pure water (2.5 mL) was placed in a vial. (3 mL, produced by Maruemu Corporation), and the vial was sealed with a rubber stopper and an aluminum seal. Next, a gas (N2 balance) having an arbitrarily adjusted CO concentration was collected in a Tedlar bag (1 L, produced by AS ONE Corporation). The air in the gas phase in the vial was replaced with the gas in the Tedlar bag until pressure reached about 2 atm by using a gas-tight syringe (M-GAN500, produced by Ito Corporation). Subsequently, the resulting product was allowed to stand until CO in the gas phase was dissolved in the liquid phase to reach equilibrium.
The CO concentration of the compositions was analyzed by gas chromatography (GC-2014 FID produced by Shimadzu Corporation).
as §1, with “Isopropyl myristate (IPM: Wako first grade, produced by Fujifilm Wako Pure” for “Pure”, “Chemical Corporation)” for “water”, “vial” for “vial.”, “(MS-GAN500,” for “(M-GAN500,”
The CO concentration of the obtained compositions was analyzed by gas chromatography (GC-2014 FID produced by Shimadzu Corporation). When the CO (%) in the gas phase in the Tedlar bag was 18%, the CO concentration of IPM was 1500 μM. When the CO (%) in the gas phase in the Tedlar bag was 100%, the CO concentration of IPM was 9000 μM.
as §1, with “The carbomer aqueous solution” for “Pure water”, “vial” for “vial.”, “(MS-GAN500,” for “(M-GAN500,”
as §1, with “The hydroxyethyl cellulose aqueous solution” for “Pure water”, “vial” for “vial.”, “(MS-GAN500,” for “(M-GAN500,”
The CO concentration of the obtained CO-containing compositions was analyzed by gas chromatography (GC-2014 FID produced by Shimadzu Corporation). When the CO (%) in the gas phase in the Tedlar bag was 100%, the CO concentration in the hydroxyethyl cellulose aqueous solution was 1500 μM.

[1] = CO in gas phase in Tedlar bag 8% (theoretical value)
[2] = CO in gas phase in Tedlar bag 100% (theoretical value)

[C-]#[O+] [CO, carbon monoxide]
CO concentration of liquid phase obtained by actual measurement [1]: 100 µM
CO concentration of liquid phase obtained by actual measurement (CO in gas phase in Tedlar bag 34% (theoretical value)): 500 µM
CO concentration of liquid phase obtained by actual measurement (CO in gas phase in Tedlar bag 67% (theoretical value)): 1000 µM
CO concentration of liquid phase obtained by actual measurement [2]: 1500 µM
CO concentration in liquid phase obtained by actual measurement [1]: 100 µM
CO concentration in liquid phase obtained by actual measurement (CO in gas phase in Tedlar bag 35% (theoretical value)): 500 µM
CO concentration in liquid phase obtained by actual measurement [2]: 1500 µM
CO concentration in the hydroxyethyl cellulose aqueous solution (solvent hydroxyethyl cellulose aqueous solution, CO in gas phase in Tedlar bag 100%): 1500 µM
CO concentration of IPM (CO in gas phase in Tedlar bag 18%): 1500 µM
CO concentration of IPM (CO in gas phase in Tedlar bag 100%): 9000 µM

Source: patent US20210228621A1, “COMPOSITION FOR SKIN WOUNDS” (SUMITOMO SEIKA CHEMICALS CO., LTD., priority 2018, published 2021)
